Test results reported in US10596145B2, “Heterocyclic flavone derivatives, compositions, and methods related thereto” (Emory University, priority 2012, dated 2020).
“Also recorded” adds a separate entry of the source.

What was measured:
Akt = assay: Downstream Akt activation in mouse brain (p-Akt immunoblotting, p-Akt 473 ELISA); format: in vivo; conditions: 2.5 mg/kg/day oral, 3 weeks
Method: PathScan Phospho-Akt1 (Ser473) Sandwich ELISA kit was purchased from Cell Signaling (Cat. #7160). 100 μl sample in sample diluent (supplied in the kit) was added to each well and incubated overnight at 4° C. After 4× wash with 200 ul wash buffer (supplied in the kit), 100 ul/well detection antibody was added and incubated for 1 hour at 37° C. After 4× wash, 100 μl of HRP-linked secondary antibody (supplied in the kit) was added and incubated for 30 minutes at 37° C. After a final wash, 100 μl of TMB substrate was added to each well and incubated for 10 minutes at 37° C. The reaction was stopped by adding 100 μl/well stop solution. Record the values of each well using microplate reader at 450 nm and 650 nm. The optical density was determined by the subtraction of the reading at 650 nm from the reading s at 450 nm.
(§1) Male C57BL/6 mice aged of two months were administrated orally with 4′-DMA-7,8-DHF derivatives at a single dose of 1 mg/kg for 4 h. The control mice were injected with saline. The mice were sacrificed and brains were homogenated and ultracentrafuged. The supernatant (40 μg) was employed for SDS-PAGE and immunoblotting analysis with indicated antibodies, respectively. Male C57BL/6 mice aged of two months were administrated orally with compound (i) or (m) at the dose of 5 mg/kg/day each and compound o or p at the dose of 2.5 mg/kg/day each for 21 days. BrdU (100 mg/kg) was i. p. injected two hours before the TrkB agonist treated animals were sacrificed and the hippocampal section lysates were analyzed by immunoblotting with p-TrkB and total TrkB antibodies, p-AKT ELISA.

C57BL/6J mice [1] = assay: Forced swim test; format: in vivo, mouse
Method: Male C57BL/6J mice (6 mice/group) were orally administrated by gavage with 5 mg/kg compound (m) or compound (i) and vehicle solvent saline for 21 days and subjected to a forced swim test (6 min, immobility recorded in the last 4 min). Data are presented as mean±SEM. (n=6, ***P<0.0001 vs vehicle, Student t-test).
Forced swim test. Male C57BL/6J mice (8 mice/group) were orally administrated by gavage with 2.5 mg/kg compound o or compound p and vehicle solvent saline for 21 days and subjected to a forced swim test (6 min, immobility recorded in the last 4 min). […] Data are presented as mean±SEM.
Adult male mice (2-3 months old) were randomly submitted to a forced swim test without a preswim. Test compounds were orally administrated by gavage for 21 days. The mice were allowed to adapt to the test room for 2 days. The mice were placed in a clear glass cylinder with a diameter of 16 cm, half-filled with clear water at 24° C.

HepG2 cells = assay: In vitro cytotoxicity assay with HepG2 cells; format: cell-based; conditions: micronucleus and comet assays
Method: HepG2 cells were treated with various concentrations of flavonoids for 24 h. The drug-treated cells were subjected to trypan blue exclusive assay. Data are presented as mean±SEM. (n=3, ***P<0.0001 vs vehicle).
In vitro and in vivo ADMET (ADME plus toxicity) of certain compounds were examined. […] Micronuclei formation is an important endpoint in genotoxicity study. […] Next, a Comet assay was performed with 100 μM drug-treated HepG2 cells. As a positive control, etoposide, a topoisomerase inhibitor, which causes DNA strand breaks was used.

TrkB = molecular target: T1, TrkB (Mus musculus, UniProt P15209); assay: TrkB phosphorylation in mouse brain after oral administration (immunoblotting, immunohistochemistry); format: in vivo
T1 construct: from tissue; host or cells: mouse brain (hippocampus, cortex), C57BL/6
T1 sequence (P15209 32-821): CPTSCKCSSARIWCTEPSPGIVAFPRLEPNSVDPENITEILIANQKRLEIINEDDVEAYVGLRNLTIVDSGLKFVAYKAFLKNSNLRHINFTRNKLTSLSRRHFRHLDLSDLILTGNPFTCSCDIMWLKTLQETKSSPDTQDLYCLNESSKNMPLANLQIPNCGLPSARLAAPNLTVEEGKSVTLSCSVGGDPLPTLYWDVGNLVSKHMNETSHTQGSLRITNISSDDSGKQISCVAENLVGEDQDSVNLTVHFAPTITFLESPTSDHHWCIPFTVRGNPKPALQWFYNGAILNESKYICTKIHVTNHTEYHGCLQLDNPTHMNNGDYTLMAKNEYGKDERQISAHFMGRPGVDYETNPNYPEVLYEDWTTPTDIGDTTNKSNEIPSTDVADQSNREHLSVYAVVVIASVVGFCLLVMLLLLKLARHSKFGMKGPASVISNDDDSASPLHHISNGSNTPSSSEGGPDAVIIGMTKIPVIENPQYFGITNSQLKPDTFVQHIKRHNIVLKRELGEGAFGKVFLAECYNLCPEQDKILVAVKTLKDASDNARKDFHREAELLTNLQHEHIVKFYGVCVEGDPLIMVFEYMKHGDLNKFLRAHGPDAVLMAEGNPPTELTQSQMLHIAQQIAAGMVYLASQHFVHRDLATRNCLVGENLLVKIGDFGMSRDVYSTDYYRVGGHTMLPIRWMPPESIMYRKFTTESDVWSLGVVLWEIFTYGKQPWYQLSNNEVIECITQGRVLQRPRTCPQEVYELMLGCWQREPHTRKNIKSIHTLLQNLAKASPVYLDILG
Method: One mg/kg of various indicated compounds were orally administrated into C57 BL/6J mice and TrkB phosphorylation and its downstream signaling cascades including Akt and MAPK in the hippocampus of mouse brain were analyzed by immunoblotting at 4 h. […] The downstream p-Akt and p-MAPK activity coupled to the TrkB activation patterns.
Time course assay with 4′-dimethylamino-7,8-imidazole flavone. One mg/kg of compound (i) and compound (m) were orally administrated into C57 BL/6J mice and TrkB phosphorylation and its downstream signaling cascades including Akt in mouse brain were analyzed by immunoblotting at various time points. TrkB activation by compound m peaked at 4 h, whereas the maximal TrkB activation by compound i in mouse brain occurred at 1-2 h. Arrows indicate the p-TrkB in mature glycosylated or unglycosylated forms (top panels). The downstream Akt activation pattern tightly correlated with the upstream TrkB activation.
as §1
Brain tissues were fixed in 4% paraformaldehyde overnight followed by paraffin embedding. Sections of 6 μm were cut. For immunohistochemical staining, brain sections were deparaffinized in xylene and rehydrated in graded alcohols. Endogenous peroxidase activity was blocked by 3% hydrogen peroxide for 5 min and all slides were boiled in 10 mM sodium citrate buffer (pH 6.0) for 10 min. Phosphorylated TrkB 816 and TrkB were detected using specific antibodies. Paraffin section were deparaffinized in xylene and rehydrated gradient ethanol solution. Samples were boiled in 10 mM sodium citrate buffer for 20 min for antigen retrieval purpose. Brain sections were incubated with anti-TrkB (BD Biosciences, San Jose, Calif.) 1:50, p-TrkB 1:300 dilution. Secondary antibody was applied using anti-rabbit-Alexa 594 (red), anti-mouse-fluorescein isothiocyanate (FITC) (green). DAPI (blue) was used for nuclear staining.

[2] = Reactive metabolic screening assay; format: in vitro ADME; conditions: liver microsomal lysates
From the text: (§2) To explore these compounds' in vitro ADMET profiles, we conducted numerous in vitro assays.

[3] = Human liver microsomal stability assay; format: in vitro ADME; conditions: human liver microsomes, 1 h incubation
From the text: as §2

C57BL/6J mice [4] = assay: Tail suspension test; format: in vivo, mouse; conditions: 2.5 mg/kg oral, 21 days
Method: The drug-treated mice were subjected tail suspension assay. […] Data are presented as mean±SEM.
One suspends mice by the tail to a horizontal ring stand bar 30 cm above the floor using adhesive tape for 6 minutes and videotaped. Latency to immobility and time spent immobile will be scored for each mouse. Following the test, mice will be returned to their home cage. Immobility scores were compared by unpaired t test.

With `Cc1nc2ccc3c(=O)cc(-c4ccc(N5CCCC5)cc4)oc3c2[nH]1` [compound o, 2-methyl-8-(4-(pyrrolidin-1-yl)phenyl)chromeno[7,8-d]imidazol-6(1H)-one] the “Akt activation (quantitative p-Akt ELISA)” value (Akt) was “notably activated Akt”, the “reduction of immobility in forced swim test compared to vehicle control” value (C57BL/6J mice [1]; 2.5 mg/kg oral once a day, 3 weeks) was 45% and the “immobility in forced swim test” value (C57BL/6J mice [1]; 2.5 mg/kg oral, 21 days) was “active in both FST and TST depression behavioral assays; also recorded: significantly decreased the immobility”. For the same molecule, the “cytotoxicity or genotoxicity (overall conclusion)” value (HepG2 cells) was “negligible cytotoxicity or genotoxicity”, the “TrkB activation in mouse brain” value (TrkB; 1 mg/kg oral, hippocampus, at 2 h) was “triggers TrkB activation in mouse brain” and the “TrkB phosphorylation after chronic treatment (immunoblotting)” value (TrkB; 2.5 mg/kg/day oral, 21 days) was “markedly activated TrkB receptor; also recorded: evidently elevated TrkB phosphorylation”. The “TrkB phosphorylation in hippocampus (immunohistochemistry, anti-p-TrkB 816)” value (TrkB; 2.5 mg/kg/day oral, chronic) was “elevated TrkB phosphorylation in hippocampus”, the “reactive metabolite / adduct formation” value [2] was “quite stable in vitro” and the “remaining unchanged after incubation” value [3] was 25.4%. The “immobility in tail suspension test” value (C57BL/6J mice [4]) was “active in both FST and TST depression behavioral assays; also recorded: significantly reduced the immobility versus vehicle control”.
